From US5622983A, “N-substituted cycloalkyl and polycycloalkyl α-substituted Trp-Phe- and phenethylamine derivatives” (Warner-Lambert Company, priority 1995, dated 1997)

Columns and labels:
LoVo cells = assay: In vitro proliferation of LoVo cells (tetrazolium salt colorimetric assay); format: cell-based, human
Method: LoVo was obtained from the American Tissue Type Collection (ATCC CCL 229). Five×10^3 to 1×10^4 LoVo cells were cultured in 200 μL of serum containing RPMI in 96-well flat-bottomed titre plates for 24 hours. […] Cell proliferation was measured indirectly using a tetrazolium salt colorimetric assay for cellular respiration (Merlin JL, Azzi S, Lignon D, Ramacci C, Zeghari N, Guillemin F. MTT assays allow quick and reliable measurement of the response of human tumor cell to photodynamic therapy. Eur. J. Cancer, 28(8/9):1452-1458 (1992)).

[1] = test system: pentagastrin stimulated gastric acid secretion; assay: Pentagastrin stimulated gastric acid secretion (Ghosh and Schild perfused stomach); format: in vivo, rat; conditions: 1 nmole/kg pentagastrin
Method: They were anesthetized with urethane (1.5 g/kg IP) and the trachea cannulated to aid spontaneous respiration. The stomach was perfused continuously using a modification of the original method of Ghosh & Schild in "Continuous recording of acid secretion in the rat", Br. J. Pharmac. […] The fluid was propelled by a roller pump (Gilson, Minipuls 2), through heating coils to bring its temperature to 37°±1° C. The perfusion fluid was collected by the fundic collecting funnel and passed to a pH electrode connected to a Jenway pH meter (PHM6). An output was taken from the pH meter to a Rikadenki chart recorder for the on-line recording of the pH of the gastric perfusate.
Pentagastrin was stored as a frozen aliquot and diluted to the required concentrations with sterile 0.9% w/v NaCl. Novel compounds were dissolved in sterile 0.9% w/v NaCl on the day of the experiment. Drugs were administered IV through a cannulated jugular vein as a bolus in a dose volume of 1 mL/kg washed in with 0.15 mL 0.9% w/v NaCl. Basal pH was allowed to stabilize before administration of compounds was begun.

[2] = Rat Social Interaction Test; format: in vivo; conditions: 0,001 to 1.0 mg/kg s.c., paired rats
Text: (Costall, B., University of Bradford)

LoVo (xenograft) = assay: LoVo xenograft growth in nude mice; format: in vivo
Method: One×10^6 LoVo cells in 0.1 mL serum-free RPMI were injected subcutaneously into the backs of 27 male nude mice. Xenografts were grown for 10 days prior to treatment, then randomly allocated to receive twice daily gavage with either 0.1 mL saline alone or containing 10 mg/kg/day of compound 20 for 20 days. Bidirectional tumor diameter was measured using vernier calipers and converted to volumes […]. The animals were sacrificed on Day 30. The protocol was approved by the UNSW Ethics committee.

[3] = Aspirin-induced gastric damage; format: in vivo, rat; conditions: 10 mg/kg PO
Method: Aspirin-induced gastric damage was assessed in groups of 10 rats each.
All animals were fasted for 24 hours before and throughout the experiment. Drug or vehicle was given 10 minutes before an oral dose of 1 mL of a 45-mg/mL suspension of aspirin in 0.5% carboxymethylcellulose (CMC).
The animals were sacrificed five hours after aspirin administration and the stomachs removed and opened for examination.

CC(Cc1c[nH]c2ccccc12)(NC(=O)OC1C2CC3CC(C2)CC1C3)C(=O)NCC(NC(=O)CCC(=O)O)c1ccccc1 (stereo not drawn) [Example 20, [R-(R*,R*)-4-[[2-[[3-(1H-indol-3-yl)-2-methyl-1-oxo-2-[[(tricyclo[3.3.1.1^3,7]dec-2-yloxy)carbonyl]amino]propyl]amino]-1-phenylethyl]amino]-4-oxobutanoic acid]
cellular proliferation expressed as a percentage of control (LoVo cells; 10^-1 M, 24 hours): 58.93±7.30%
cellular proliferation expressed as a percentage of control (LoVo cells; 10^-1 M, 48 hours): 82.60±2.33%
cellular proliferation expressed as a percentage of control (LoVo cells; 10^-1 M, 72 hours): 80.53±3.06%
cellular proliferation expressed as a percentage of control (LoVo cells; 10^-7 M, 24 hours): 81.60±6.62%
cellular proliferation expressed as a percentage of control (LoVo cells; 10^-7 M, 48 hours): 95.33±2.50%
cellular proliferation expressed as a percentage of control (LoVo cells; 10^-7 M, 72 hours): 84.71±6.97%
cellular proliferation expressed as a percentage of control (LoVo cells; 10^-8 M, 24 hours): 70.13±7.15%
cellular proliferation expressed as a percentage of control (LoVo cells; 10^-8 M, 48 hours): 93.20±4.04%
cellular proliferation expressed as a percentage of control (LoVo cells; 10^-8 M, 72 hours): 85.93±4.19%
cellular proliferation expressed as a percentage of control (LoVo cells; 10^-9 M, 24 hours): 62.47±7.20%
cellular proliferation expressed as a percentage of control (LoVo cells; 10^-9 M, 48 hours): 82.73±2.97%
cellular proliferation expressed as a percentage of control (LoVo cells; 10^-9 M, 72 hours): 79.07±3.18%
cellular proliferation expressed as a percentage of control (LoVo cells; 10^-11 M, 24 hours, LoVo, serum-free RPMI): 66.47±6.72%
cellular proliferation expressed as a percentage of control (LoVo cells; 10^-11 M, 48 hours): 80.47±2.64%
cellular proliferation expressed as a percentage of control (LoVo cells; 10^-11 M, 72 hours): 78.87±3.25%
concentrations with significant inhibition (LoVo cells; after 24 and 72 hours (ANOVA)): 10^-11 to 10^-8 M
concentrations with significant inhibition (LoVo cells; at 48 hours (ANOVA)): 10^-11 to 10^-9 M
time of maximum inhibition (LoVo cells; cultures not refed with compound): 24 h
reversibility of the antagonism [1]: reversible with full recovery of the response to pentagastrin
effect on stimulation of gastric acid secretion produced by pentagastrin ([1]; compound IV, anesthetized rat): antagonized
time spent in social interaction compared with control (FIG. 13) [2]: increase in time spent in social interaction
reduction of tumor volume at Day 30 compared to control (LoVo (xenograft); 10 mg/kg/day by gavage for 20 days): 53%
tumor growth overall, mean tumor volume (FIG. 17) (LoVo (xenograft); 10 mg/kg/day orally, 20 days, p <0.05, ANOVA): significantly inhibited tumor growth overall
day from which tumor size diverged significantly between control and treated animals (LoVo (xenograft); 10 mg/kg/day, p <0.05, ANOVA): 21 days
reduction in ulcer formation [3]: 48%
ulcer score ([3]; ±SD, saline control 12.1±6.85): 6.3±4.14
